Each structure is given as a SMILES string. Values after ≈ are worked out from the molar mass of the structure shown.

The record followed here is patent publication US4861774A, “Method of treating tumors using tetracyclo compounds” (priority 1984, dated 1989).

Series [1] relates to mouse lymphocytic leukemia P388 tumor cells. The series is described as follows: in vitro cytotoxicity, P388 tumor cells, 72 hours (Test 4). As to conditions: 50% inhibition of cell growth, 37° C. It is filed as cell-based. As for the experimental part:
A suspension of mouse lymphocytic leukemia P388 tumor cells was prepared from a diluted ascitic fluid using Hanks' solution after 7 days of tumor implantation, and centrifuged at 1000 rpm for 15 minutes at cold temperature. The cells were adjusted at a concentration of 2.5×10^6 cell/ml in MEM Dulbecco medium supplemented with 10% foetal bovine serum, penicillin G (60 μg/ml) and streptomycin (20 μg/ml). Then, cells were treated with the graded doses of the test compounds in plastic tissue culture dishes at 37° C. and incubated for 72 hours in humidified atmosphere of 5% carbon dioxide. Concentration of the substance required for 50% inhibition of cell growth (IC50 value) (μg/ml) was determined by plotting the logarithms of the drug concentration versus the growth rate (percentage of control) of the treated cells.

In series [2] the test system is L1210 Leukemia. The series is described as follows: L1210 Leukemia ascitic tumor in mice (Test 5). In kind it is in vivo, mice (BDF1 or CDF1). The note with it: 10.0 mg/kg i.p., days 1-9, CDF1 mice; in physiological saline. The text has this: L1210 Leukemia (1×10^5 cells), maintained i.p. by serial passage in female DBA/2 mice, was implanted i.p. to female BDF1 or CDF1 mice on day 0, and the test compounds or vehicle were given i.p. to the mice once a day on days 1-9.
(§1) Ten mice were used for each test group, and twenty mice were used for each vehicle-treated control group.
(§2) Drug efficacy against the ascitic tumors is expressed as percentage of the median (mean) survival time of the test group to that of the control group. [formula] .circle.2 Results

Series [3] has as its system B16 Melanoma. The series is described as follows: B16 Melanoma in mice (Test 5). In kind it is in vivo, mice (BDF1). As to conditions: 3.2 mg/kg i.p., days 1-9; in physiological saline. As for the experimental part: (§3) B16 Melanoma (1:10 brei, 0.5 ml), maintained s.c. by serial passage in female C57BL/6 mice, was implanted i.p. to female BDF1 mice on day 0, and the test compounds or vehicle were given i.p. to the mice once a day on days 1-9.
as §1, §2

A further series concerns Colon 38 carcinoma. The series is described as follows: in vivo murine solid tumor model, Colon 38 carcinoma (Test 7). Set-up: species or system mice. As to conditions: 10.0 mg/kg i.v., days 1, 4, 7 and 10; tumor weight on day 21. As for the experimental part:
Colon 38 carcinoma (fragment, 2×2×2 mm), maintained s.c. by serial passage in female C57BL/6 mice, was implanted s.c. to female BDFhd 1 mice on day 0, and the test compounds or vehicle were given i.v. to the mice once a day on days 1, 4, 7 and 10. Tumor weight was measured on day 21.
(§4) Tumor weight was calculated as follows: (Tumor length and width were measured by caliper.)
(§5) Tumor weight (mg)=1/2×a×b^2, where a represents length and b represents width (mm).
Ten mice were used for each test group or vehicle-treated control group.
Drug efficacy against the solid tumor is expressed as percentage of the mean tumor weight of the test group to that of the control group. [formula]

Another series has as its system Human LX-1 lung. Briefly: Human LX-1 lung tumor in nude mice (Test 9). In kind it is in vivo, human (in BALB/c nu/nu mice). The note with it: 5.6 mg/kg i.v., days 10, 14 & 17; evaluation day 21. As for the experimental part:
(§6) Human LX-1 lung or MX-1 mammary (each fragment, 2×2×2 mm), maintained s.c. by serial passage in male BALB/c nu/nu mice, was implanted s.c. to male BALB/c nu/nu mice on day 0, and the test compounds or vehicle were given i.v. to the mice once a day on specified days in Table 9.
as §4, §5
(§7) Tumor weights (initial) and (last) were calculated on the first injection day (just before dosing) and on day 21, 27 or 28 (the last evaluation day), respectively.
(§8) Five mice were used for each test group and 5 or 10 mice were used for each vehicle-treated control group.
(§9) Drug efficacy was expressed as percentage of mean tumor weight of the test group to that of the control group. [formula]

In the next series the test system is Human MX-1 mammary. The series is described as follows: Human MX-1 mammary tumor in nude mice (Test 9). The note with it: 32. mg/kg (so in the source) i.v., days 10, 14 & 17; evaluation day 21. It is filed as in vivo, human (in BALB/c nu/nu mice). As for the experimental part: as §6, §4, §5, §7, §8, §9
The subject of series [4] is L1210 Leukemia. Briefly: L1210 Leukemia in mice, graded doses (Test 11). In kind it is in vivo, mice (CDF1). As to conditions: days 1-9. As for the experimental part:
L1210 Leukemia (1×10^5 cells), maintained i.p. by serial passage in female DBA/2 mice, was implanted i.p. to female CDF1 mice on day 0, and the test compounds or vehicle were given i.p. to the mice once a day on days 1-9.
as §1
(§10) Compound R (which was dissolved in 10% polyoxyethylated (60 mol) hydrogenated castor oil in physiological saline solution)
(§11) Drug efficacy against the ascitic tumors is expressed as percentage of the median (mean) survival time of the test group to that of the control group. [formula]

For series [5], the system named is B16 Melanoma. Briefly: B16 Melanoma in mice, graded doses (Test 11). It is filed as in vivo, mice (BDF1). As to conditions: days 1-9. As for the experimental part:
as §3, §1, §10, §11

In the case of `CC(=O)Oc1cc(C=O)cc2c1C(COC(N)=O)C1(OC(C)=O)ON2CC2C1N2C(C)=O` (stereo not drawn) [Compound R, 11-Acetyl-4-formyl-8-carbamoyloxymethyl-14-oxa-1,11-diazatetracyclo[7.4.1.0^2,7.0^10,12]tetradeca-2,4,6-trien-6,9-diyl diacetate], the IC50 (commonly the concentration at which inhibition is half-maximal) in series [1] stood at 0.05 µg/mL. Also, the T/C – broadly, the result in the treated group divided by that in the control group, in per cent – in the series on L1210 Leukemia [2] is given as 197%; with B16 Melanoma [3], over 316%; in the series with L1210 Leukemia [4] (0.1 mg/kg i.p.), 125%; with L1210 Leukemia [4] (0.32 mg/kg i.p.) it was 131%; in the series on L1210 Leukemia [4] (1.0 mg/kg i.p.), 156%; in the series with L1210 Leukemia [4] (3.2 mg/kg i.p.) it was 150%. In addition, the T/C is 163% in the series with L1210 Leukemia [4] (5.6 mg/kg i.p.); 106% with L1210 Leukemia [4] (10 mg/kg i.p.); 88% in the series with L1210 Leukemia [4] (18 mg/kg i.p.); 106% in the series on B16 Melanoma [5] (0.0032 mg/kg i.p.); 122% in the series on B16 Melanoma [5] (0.01 mg/kg i.p.); 166% in the series with B16 Melanoma [5] (0.032 mg/kg i.p.). Moreover, the T/C with B16 Melanoma [5] (0.1 mg/kg i.p.) is 219%; in the series with B16 Melanoma [5] (0.32 mg/kg i.p.), 213%; with B16 Melanoma [5] (0.56 mg/kg i.p.) it was over 291%; with B16 Melanoma [5] (1.0 mg/kg i.p.) it was over 375%; in the series with B16 Melanoma [5] (1.8 mg/kg i.p.), over 375%; in the series with B16 Melanoma [5] (3.2 mg/kg i.p.) it was 225%. For the same compound, the results for the T/C with B16 Melanoma [5] (5.6 mg/kg i.p.) and in the series on B16 Melanoma [5] (10 mg/kg i.p.) were 134% and 66%, respectively. In the series on Colon 38 carcinoma, the “1-T'/C'” value is on record as 100%. For the same compound, the “1-T"/C"” value came to 90% with Human LX-1 lung and 99% in the series on Human MX-1 mammary. Further, the Solubility entry in the series “Solubility” (acetone) is on record as “Soluble”; in “Solubility” (chloroform), “Soluble”; in “Solubility” (methanol), “Soluble”; in the series “Solubility” (water), “Insoluble”.

With `C=C1c2c(OC(C)=O)cc(C=O)cc2N2CC3C(N3C(C)=O)C1(O)O2` (stereo not drawn) [Compound S, 11-Acetyl-4-formyl-9-hydroxy-8-methylene-14-oxa-1,11-diazatetracyclo[7.4.1.0^2,7.0^10,12]tetradeca-2,4,6-trien-6-yl acetate], inhibition in series [1] was half-maximal at 0.02 µg/mL (IC50).

As to `CC(=O)OCc1cc(OC(C)=O)c2c(c1)N1CC3C(N3C(C)=O)C(O)(O1)C2COC(N)=O` (stereo not drawn) [Compound T, 11-Acetyl-4-acetoxymethyl-8-carbamoyloxymethyl-9-hydroxy-14-oxa-1,11-diazatetracyclo[7.4.1.0^2,7.0^10,12]tetradeca-2,4,6-trien-6-yl acetate], it took 0.02 µg/mL to reach half-maximal inhibition in series [1] (IC50).

The compound `CC(=O)OCc1cc(OC(C)=O)c2c(c1)N1CC3C(N3C(C)=O)C(OC(C)=O)(O1)C2COC(N)=O` (stereo not drawn) [Compound U, 4-Acetoxymethyl-11-acetyl-8-carbamoyloxymethyl-14-oxa-1,11-diazatetracyclo[7.4.1.0^2,7.0^10,12]tetradeca-2,4,6-trien-6,9-diyl diacetate] displayed an IC50 in [1] of 0.01 to 0.02 µg/mL.

As to `COc1cc(C=O)cc2c1C(COC(N)=O)C1(OC(C)=O)ON2CC2C1N2C(C)=O` (stereo not drawn) [Compound V, 11-Acetyl-8-carbamoyloxymethyl-4-formyl-6-methoxy-14-oxa-1,11-diazatetracyclo[7.4.1.0^2,7.0^10,12]tetradeca-2,4,6-trien-9-yl acetate], half-maximal inhibition in series [1] (IC50) was put at 0.02 µg/mL.

Regarding `COc1cc(C=O)cc2c1C(COC(N)=O)C1(O)ON2CC2C1N2C(C)=O` (stereo not drawn) [Compound W, 11-Acetyl-4-formyl-9-hydroxy-6-methoxy-14-oxa-1,11-diazatetracyclo[7.4.1.0^2,7.0^10,12]tetradeca-2,4,6-trien-8-ylmethyl carbamate], the IC50 in series [1] was found to be 0.01 µg/mL (≈ 0.0265 µM).
